In US20050084484A1, “Reduction of oxidative stress factors” (Probi AB, priority 1999, published 2005):

Assays:
[1] = test system: Human monocyte macrophage cells; assay: Propionic acid induced reduction of oxidative stress (8-Isoprostane EIA); assay type: cell-based; details: 10 μM propionic acid 4 h, then LPS 1.0 ng/ml 24 h; versus control cells; mean of 3 experiments
Method: Human monocyte macrophage cells were isolated as described above and 6 million cells were preincubated in 2 ml of RPMI-1640 medium (10% fetalcalf serum, […] of penicillin/streptomycin, 2 mM glutamine) in dishes having a diameter of […]. 10 μM propionic acid was then added and the cells were incubated at 37° C. for 4 h. The medium was subsequently removed and replaced with fresh medium and the cells were stimulated with LPS (lipopolysaccharide), 1.0 ng/ml medium, in order to provoke prooxidant stress. After 24 h the medium was removed and concentrated 10 times by evaporation. Oxidative stress with and without (control cells) propionic acid was evaluated using the 8-Isoprostane EIA kit from Cayman Chemical.
The reduction of oxidative stress expressed as the mean value from 3 experiments of the decrease in the 8-isoprostane level was 47%.

[2] = test system: monocytes and lymphocytes; assay: Effect of ibuprofen on ROS production, comparative study; assay type: in vivo, human; details: ibuprofen 500 mg/d for 3 weeks, six healthy volunteers; preliminary data; compared with Lactobacillus plantarum 299v
Method: The measurement of cell oxidation is based on reactive oxygen species (ROS) mediated conversion of nonfluorescent 2,7′-dichlorofluorescein (DCFH), loaded into cells as 2,7′-dichlorofluorescein diacetate, into fluorescent DCF with increased fluorescence emission reflecting enhanced oxidative stress. Freshly isolated PBMC, consisting of approximatively 30% monocytes and 70% lymphocytes, were resuspended in phosphate buffered saline (PBS) followed by incubation with 20 μM […] at 37° C. for 30 min in the dark. The cells were then washed with PBS. The relative fluorescence intensity of the fluorophore 2′,7-dichlorofluorescein, which is formed by peroxide oxidation of its nonfluorescent precursor, was detected with cytofluorimetric assay (FACScan, Becton Dickinson). During flow cytometric analysis monocytes and lymphocytes were gated on the basis of forward scater (FCS) and side scater (SCC). The results are expressed as mean fluorescence intensity […].
In order to investigate the mechanisms behind the reduction of ROS by ibuprofen, a propionic acid derivative and a well-known antiinflammatory drug, ibuprofen was administered in an amount of 500 mg/d to the same group of six healthy volunteers as participated in the study described in Test 1 for 3 weeks.

Row | Structure (SMILES) | Reduction of oxidative stress, decrease in the 8-isoprostane level [1] | ROS response of monocytes and lymphocytes [2]
1 | CCC(=O)O [propionic acid] | 47% | 
2 | CC(C)Cc1ccc(C(C)C(=O)O)cc1 (centres unmarked) [ibuprofen] |  | respond in exactly the same way
